Laboratory results: paper PMC9398908, “GLP-1-mediated delivery of tesaglitazar improves obesity and glucose metabolism in male mice” (Nature Metabolism, 2022)

Molecular target: T1, PPARγ2/RXR (Homo sapiens, UniProt P37231)
T1 construct: host or cells: HEK293T, with (A8) or without (A9) co-expressed hGLP-1R
T1 sequence (P37231 1-505): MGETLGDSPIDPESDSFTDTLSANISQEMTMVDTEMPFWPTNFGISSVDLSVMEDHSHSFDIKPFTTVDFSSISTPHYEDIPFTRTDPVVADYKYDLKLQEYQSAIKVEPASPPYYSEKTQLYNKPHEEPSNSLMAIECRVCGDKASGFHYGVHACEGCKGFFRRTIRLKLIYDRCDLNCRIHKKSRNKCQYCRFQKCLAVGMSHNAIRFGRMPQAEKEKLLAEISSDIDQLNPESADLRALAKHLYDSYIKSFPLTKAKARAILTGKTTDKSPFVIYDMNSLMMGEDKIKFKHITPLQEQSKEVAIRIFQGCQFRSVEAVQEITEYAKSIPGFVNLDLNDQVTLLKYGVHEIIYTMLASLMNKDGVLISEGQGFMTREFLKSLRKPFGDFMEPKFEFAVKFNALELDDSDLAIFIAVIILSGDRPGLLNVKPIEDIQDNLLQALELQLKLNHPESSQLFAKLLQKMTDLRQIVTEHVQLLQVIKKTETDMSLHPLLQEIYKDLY
T1 sequence (P19793 1-462 partner): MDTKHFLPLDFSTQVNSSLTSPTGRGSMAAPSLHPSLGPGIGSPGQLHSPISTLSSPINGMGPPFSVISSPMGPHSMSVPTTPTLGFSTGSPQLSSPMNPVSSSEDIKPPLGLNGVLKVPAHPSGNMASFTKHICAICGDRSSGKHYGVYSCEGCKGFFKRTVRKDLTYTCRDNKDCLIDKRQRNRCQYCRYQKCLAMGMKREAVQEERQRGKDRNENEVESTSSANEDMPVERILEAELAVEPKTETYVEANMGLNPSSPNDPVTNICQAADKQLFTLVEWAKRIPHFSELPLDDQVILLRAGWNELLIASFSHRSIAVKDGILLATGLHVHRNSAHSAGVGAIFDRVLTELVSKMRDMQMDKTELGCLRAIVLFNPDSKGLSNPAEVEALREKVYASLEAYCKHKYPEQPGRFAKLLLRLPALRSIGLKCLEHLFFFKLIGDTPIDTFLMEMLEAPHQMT
Test: RXR-Rluc8 / PPARγ2-YFP heterodimerization (BRET) in hGLP-1R(+) HEK293T cells
Type: cell-based
Details: GLP-1R (+), 1μM
Procedure: HEK293T cells (700,000 per well) were seeded in six-well plates and incubated to 70% confluency in DMEM (10% FBS, 1% Pen/Strep). Twenty-four hours following seeding, transient transfections were performed using Lipofectamine 2000 (catalogue no. 11668019, Invitrogen) according to the manufacturer’s protocol without including additional transformation carrier DNA.
Twenty-four hours following transfection, HEK293T cells or MIN6 cells were washed with PBS and resuspended in FluoroBrite phenol red-free complete media (catalogue no. A1896701, Life Technologies) containing 5% FBS and 2 mM of L-glutamine (catalogue no. 25030081, Life Technologies). 100,000 cells per well were plated into poly-D-lysine-coated (catalogue no. P6403, Sigma-Aldrich) 96-well white polystyrene LumiNunc plates (catalogue no. 10072151, Thermo Fisher Scientific). After 24 h, the media was replaced with PBS (catalogue no. 10010056, Gibco) containing 10 μM of coelenterazine-h (catalogue no. S2011, Promega) or 1:500 dilution of NanoGlo (catalogue no. N1110, Promega). BRET measurements were taken every 30 s–2 min using a PHERAstar FS multi-mode microplate reader. Baseline measurements were taken after an initial 5 min of incubation with coelenterazine-h or NanoGlo-containing PBS after which cells were then treated with either vehicle (PBS) or respective ligands. The resulting ligand-specific ratiometric BRET signals were normalized to vehicle producing the ‘ligand-induced BRET ratio’[37], followed by an additional normalization step to well-specific baseline readings. Ligand-induced measurements on the temporal scale is represented as the subsequent measurement after time point zero. Positive or negative incremental AUC (+iAUC/−iAUC) were calculated where noted. Each experiment was independently performed at least three times, each with at least three technical replicates for each group.
Untagged hGLP-1R was purchased from Sino Biological Inc. (catalogue no. HG13944-UT), hGLP-1R-GFP was a kind gift from D. Hodson (University of Birmingham), and hGLP-1R-Rluc8 was a kind gift from P. Sexton (Monash University, Melbourne, Australia). Gαs recruitment to the GLP-1R-GFP was quantified using mini-Gαs, a protein probe that translocates to ligand-bound Gαs-coupled G-protein coupled receptors. NES-Nluc-MiniGαs was a gift from K. Pfleger (Harry Perkins Institute of Medical Research, Nedlands, Western Australia, Australia). Intracellular cAMP was measured using the YFP-Epac-Rluc CAMYEL sensor[39]. hGLP-1R-RLUC8 internalization was quantified using the intracellular plasma membrane marker Venus-KRAS[40]. Venus-KRAS was a kind gift from K. Pfleger. GLP-1R-Rluc8 lysosomal colocalization was measured using Lamp1-mNeonGreen. Lamp1-mNeonGreen was a gift from D. Gadella (Addgene plasmid no. 98882). Time-dependent RXR/PPARγ heterodimerization was measured using RXR-Rluc8 and PPARγ2-YFP, both of which were kind gifts from V. Ollendorf[41].

CCO[C@@H](Cc1ccc(OCCc2ccc(OS(C)(=O)=O)cc2)cc1)C(=O)O [tesaglitazar, (S)-2-ethoxy-3-(4-(4-((methylsulfonyl)oxy)phenethoxy)phenyl) propanoic acid] was tested, and the “RXR/PPARγ Heterodimerization (AUC), +iAUC” value (shortened to “RXR/PPARγ Heterodimerization”) (replicate 1) was 81.74, the “RXR/PPARγ Heterodimerization” value (replicate 2) was 115.10 and the “RXR/PPARγ Heterodimerization” value (replicate 3) was 84.31. The “RXR/PPARγ Heterodimerization” value (replicate 4) was 42.82, the “RXR/PPARγ Heterodimerization” value (replicate 5) was 35.86 and the “RXR/PPARγ Heterodimerization” value (replicate 6) was 49.17. For the same molecule, the “RXR/PPARγ Heterodimerization” value (replicate 7) was 59.85 and the “RXR/PPARγ Heterodimerization” value (replicate 8) was 106.60.
